Data published in paper PMC9640980, “Pharmacological evaluation of enantiomerically separated positive allosteric modulators of cannabinoid 1 receptor, GAT591 and GAT593” (Frontiers in Pharmacology, 2022).

Columns and labels:
male C57BL/6 mice [1] = system: male C57BL/6 mice; parameters: method as in Garai et al., 2020; conditions: 0.1, 1, 3, or 10 mg/kg (i.p.) compared to vehicle; ref Garai et al., 2020; cited from earlier work
male C57BL/6 mice [2] = system: male C57BL/6 mice; parameters: method as in Garai et al., 2020; conditions: 0.1, 1, 3, or 10 mg/kg (i.p.) compared to vehicle; ref Garai et al., 2020; cited from earlier work; remark: listed apart in the source
male C57BL/6 mice [3] = system: male C57BL/6 mice; parameters: method as in Garai et al., 2020; conditions: significant relative to vehicle at 3 and 10 mg/kg; ref Garai et al., 2020; cited from earlier work
[4] = parameters: method as in Garai et al., 2020; conditions: racemic mixtures; ref Garai et al., 2020; cited from earlier work
human CB1R (hCB1R) [5] = target: T1, human CB1R (hCB1R) (Homo sapiens, UniProt P21554); assay: HitHunter cAMP inhibition assay in hCB1R CHO-K1 cells (10 µM forskolin); format: cell-based; conditions: value (95% CI)
T1 construct: host or cells: CHO-K1 (PathHunter βarrestin2 line)
T1 sequence (P21554 whole entry): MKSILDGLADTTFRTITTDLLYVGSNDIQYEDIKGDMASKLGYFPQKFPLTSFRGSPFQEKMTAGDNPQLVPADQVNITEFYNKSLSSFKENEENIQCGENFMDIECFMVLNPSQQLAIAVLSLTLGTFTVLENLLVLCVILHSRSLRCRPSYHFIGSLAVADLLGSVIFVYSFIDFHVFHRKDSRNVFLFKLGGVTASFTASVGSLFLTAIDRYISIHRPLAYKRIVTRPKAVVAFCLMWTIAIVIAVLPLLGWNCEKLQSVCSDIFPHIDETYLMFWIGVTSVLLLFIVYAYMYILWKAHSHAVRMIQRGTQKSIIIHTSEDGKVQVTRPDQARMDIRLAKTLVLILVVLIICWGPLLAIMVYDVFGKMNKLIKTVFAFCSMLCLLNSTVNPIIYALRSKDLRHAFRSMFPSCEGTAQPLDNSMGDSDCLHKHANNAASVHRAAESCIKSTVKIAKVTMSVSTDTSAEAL
Description: (§1) HitHunter (cAMP) and PathHunter (βarrestin2) Chinese hamster ovary (CHO)-K1 cells stably-expressing human CB1R (hCB1R) from DiscoveRx (Eurofins, Freemont, CA) were maintained at 37°C, 5% CO2 in DMEM/F-12 containing 10% fetal bovine serum (FBS) and 5 U × 10^4 U penicillin/streptomycin (ThermoFisher, Mississauga, ON). In addition, 800 μg/ml geneticin was used for CHO-K1 hCB1R HitHunter cAMP cells and 800 μg/ml geneticin and 300 μg/ml hygromycin B was used for CHO-K1 hCB1R PathHunter βarrestin2 cells.
cAMP inhibition was performed in the presence of 10 µM forskolin (FSK) using the DiscoveRx HitHunter assay in hCB1R CHO-K1 cells. Cells (16,000 cells/well in 96 well plates) were incubated overnight in Opti-MEM (Invitrogen) containing 1% FBS at 37°C and 5% CO2. Opti-MEM media was removed and replaced with cell assay buffer (DiscoveRx) and then cells were simultaneously treated with 10 µM FSK and experimental compounds (0.10 nM–10 µM) for 90 min cAMP antibody solution and working detection solutions were added according to the manufacturer’s protocol (DiscoveRx), and cells were incubated for 60 min at room temperature. cAMP solution A was added according to the manufacturer’s protocol (DiscoveRx) and cells were incubated for an additional 60 min at room temperature before chemiluminescence was measured on a Cytation5 plate reader (top read, gain 200, integration time 10 s).
(§2) Data related to EC50 and E max in Figures 3, 4 were obtained with nonlinear regression models (3-parameter model, GraphPad Prism 9.0, San Diego, CA). […] Significance was determined by one- or two-way ANOVA followed by Tukey’s or Bonferroni’s post-hoc test as indicated. p < 0.05 was considered significant and p values were only employed where ANOVA was used. Data related to Figure 5 was analyzed in GraphPad Prism 9.0 was used to analyze in vivo data and p < 0.05 was considered to be statistically significant. Data are expressed as mean ± SEM. Group sizes for all experiments are described in figure legends.

male C57BL/6 mice [6] = assay: Triad assessment in mice: nociception (warm water tail-flick test); format: in vivo, mouse; conditions: for anti-nociceptive effects (tail flick), compound alone: 0.1, 1, 3, or 10 mg/kg i.p. compared to vehicle, male C57BL/6 mice, Figure 5C; for anti-nociceptive effect (tail flick), co-administered with THC: 3 and 10 mg/kg i.p. + sub-threshold 1 mg/kg THC, Figure 5F
Description: (§3) Male C57BL/6 mice (Charles River, Senneville, QC) between 4 and 7 months of age were used for these studies. Animals were group housed at the Laboratory Animal Services Unit (LASU) at the University of Saskatchewan (3-5 animals/cage) with a standard 12:12 light-dark cycle, ad libitum access to food and water, and environmental enrichment. Compounds administered intraperitoneally (i.p.) were prepared in vehicle [ethanol and cremophor in saline (1:1:8)]. Catalepsy was assessed in the bar holding assay 5 min after drug administration. Mice were placed so that their forepaws clasped a 0.7 cm ring clamp positioned 4.5 cm above the surface of the testing space ([Zagzoog et al., 2021]). The length of time the ring was held was recorded in seconds. The trial ended if the mouse turned its head or body or made 3 consecutive escape attempts to a maximum of 60 s. Body temperature was measured by rectal thermometer 15 min after drug administration. Anti-nociceptive effects were measured in the warm water (52 ± 2°C) tail-flick test 20 min after drug administration. Response in this case was defined by the removal of the tail from the warm water, with a maximal response time of 20 s. Catalepsy and tail flick data are presented as percent maximum possible effect (MPE). Compounds were administered at the doses indicated. Experimenters were blinded to treatment for all behavioral assessments and analyses. Animals were purchased, rather than bred, to reduce animal numbers. In all cases, experiments were performed with the approval of the University Animal Care Committee (UACC) at the University of Saskatchewan and are in keeping with the guidelines of the Canadian Council on Animal Care (CCAC) and the ARRIVE guidelines ([Kilkenny et al., 2010]).

hCB1R [7] = target: T2, hCB1R (Homo sapiens, UniProt P21554); assay: [35S]GTPγS G protein coupling assay, membranes of CHO-K1 cells overexpressing hCB1R; format: biochemical; conditions: absence of orthosteric agonist, Figure 4B; for EC50: value (95% CI), read-out: EC50 (nM) 95% C.I., [35S]GTPγS binding, compound alone
T2 construct: expressed in transfected cells; host or cells: CHO-K1 cell membranes
T2 sequence (P21554 whole entry): as above
Description: This assay was conducted as described in previous reports ([Garai et al., 2020]). To summarize, the assay was completed in the presence of [35S]GTPγS (0.1 nM), GDP (30 µM), GTPγS (30 µM) using membranes derived from CHO-K1 cells (1 mg/ml) overexpressing hCB1R. Assay buffer consisted of 50 mM Tris, 10 mM MgCl2, 100 mM NaCl, 0.2 mM EDTA and 1 mM dithiothreitol (DTT) at pH 7.4. Membranes were incubated at 30°C for 90 min in a total volume of […]. Reactions were ended by the addition of ice-cold wash buffer (50 mM Tris and 1 mg/ml BSA, pH 7.4) followed by rapid filtration under vacuum through pre-soaked Whatman GF/B glass-fibre filters in a 24-well sampling manifold (Brandel Cell Harvester; Brandel Inc., Gaithersburg, MD, United States). Reaction wells were washed six times with a 1.2 ml aliquots of Tris-binding buffer. Filters were subsequently oven-dried for 60 min and placed in 3 ml of scintillation fluid (Ultima Gold XR, PerkinElmer). Bound radioactivity was determined by liquid scintillation counting. Basal [35S]GTPγS binding was determined in the presence of […] GDP without any compounds present. Non-specific binding was determined in the presence of […] GTPγS.
as §2

male C57BL/6 mice [8] = assay: Triad assessment in mice: body temperature (rectal thermometer); format: in vivo, mouse; conditions: for hypothermia, compound alone: 0.1, 1, 3, or 10 mg/kg i.p. compared to vehicle, male C57BL/6 mice, Figure 5B; for hypothermic effect, co-administered with THC: 3 and 10 mg/kg i.p. + sub-threshold 1 mg/kg THC, Figure 5E
Description: as §3

human CB1R (hCB1R) [9] = target: T1, human CB1R (hCB1R); assay: PathHunter βarrestin2 recruitment assay in hCB1R CHO-K1 cells; format: cell-based; conditions: for activity in the βarrestin2 recruitment assay as PAM, in words: as PAMs, 100 nM CP55,940; for βarrestin2 recruitment to hCB1R, in words: as agonist (and PAM where stated), Figures 3B,D; for EC50: compound alone, hCB1R CHO-K1, 90 min, value (95% CI), Figure 3B, read-out: EC50 (nM) 95% C.I., βarrestin2 recruitment as agonist
Description: as §1
βarrestin2 recruitment was determined using the hCB1R CHO-K1 cell PathHunter assay (DiscoveRx). Cells (16,000 cells/well in 96 well plates) were incubated overnight in Opti-MEM (Invitrogen) containing 1% FBS at 37°C and 5% CO2. Cells were then simultaneously treated with experimental compounds (0.10 nM–10 µM) for 90 min. Detection solution was added to cells according to the manufacturer’s protocol (DiscoveRx), and cells were incubated for 60 min at room temperature. Chemiluminescence was measured on a Cytation5 plate reader (top read, gain 200, integration time 10 s).
as §2

male C57BL/6 mice [10] = assay: Triad assessment in mice: catalepsy (bar holding assay); format: in vivo, mouse; conditions: for catalepsy, compound alone: 0.1, 1, 3, or 10 mg/kg i.p. compared to vehicle, male C57BL/6 mice, Figure 5A; for cataleptic effect, co-administered with THC: 3 and 10 mg/kg i.p. + sub-threshold 1 mg/kg THC, Figure 5D
Description: as §3

hCB1R [11] = target: T2, hCB1R; assay: [3H]CP55,940 radioligand binding to hCB1R CHO-K1 cell membranes; conditions: for Emax ± S.E.M., [3H]CP55,940 bound: 1 nM [3H]CP55,940, Figure 4A
Description: The assay began with the addition of transfected hCB1R CHO-K1 cell membranes (25 µg protein per well). The assays were left to equilibrate at room temperature for 2 h before vacuum filtration using a Millipore Sigma 12-well sampling manifold and filter paper that had been soaked in wash buffer. Each reaction well was washed 3 times with a 2 ml aliquot of Tris-binding buffer. The filters were removed then submerged in 5 ml of scintillation fluid (Ultima Gold F, PerkinElmer, Buckinghamshire, United Kingdom). Radioactivity was quantified by liquid scintillation spectrometry.
as §2

[12] = 100 nM CP55,940 + compound, Figure 3C, read-out: EC50 (nM) 95% C.I., cAMP inhibition as PAM
[13] = compound alone, hCB1R CHO-K1, 90 min, Figure 3A, read-out: EC50 (nM) 95% C.I., cAMP inhibition as agonist

SMILES | catalepsy, racemate alone (male C57BL/6 mice [1]) | hypothermia, racemate alone (male C57BL/6 mice [2]) | anti-nociceptive effect in the tail flick assay, racemate alone (male C57BL/6 mice [3]) | metabolic stability and blood brain barrier penetrance, in words [4] | EC50 (human CB1R (hCB1R) [5]; [12]) | EC50 (human CB1R (hCB1R) [5]; [13]) | anti-nociceptive effects (tail flick), compound alone (male C57BL/6 mice [6]) | Emax ± S.E.M., [35S]GTPγS binding, compound alone (hCB1R [7]) | EC50 (hCB1R [7]) | hypothermia, compound alone (male C57BL/6 mice [8]) | activity in the βarrestin2 recruitment assay as PAM, in words (human CB1R (hCB1R) [9]) | βarrestin2 recruitment to hCB1R, in words (human CB1R (hCB1R) [9]) | EC50 (human CB1R (hCB1R) [9]) | catalepsy, compound alone (male C57BL/6 mice [10]) | EC50 (hCB1R [11]) | Emax ± S.E.M., [3H]CP55,940 bound (hCB1R [11]) | anti-nociceptive effect (tail flick), co-administered with THC (male C57BL/6 mice [6]) | hypothermic effect, co-administered with THC (male C57BL/6 mice [8]) | cataleptic effect, co-administered with THC (male C57BL/6 mice [10])
O=[N+]([O-])CC(c1ccccc1F)c1c(-c2cccc(F)c2)[nH]c2cc(F)ccc12 (centres unmarked) [GAT591] | did not produce | did not produce | dose-dependent anti-nociceptive effect | – | – | – | – | – | – | – | – | – | – | – | – | – | – | – | –
O=[N+]([O-])CC(c1ccccc1F)c1c(-c2cccc(F)c2)[nH]c2c(F)cccc12 (centres unmarked) [GAT593] | did not produce | did not produce | dose-dependent anti-nociceptive effect | superior to GAT591 | – | – | – | – | – | – | – | – | – | – | – | – | – | – | –
O=[N+]([O-])CC(c1ccccc1F)c1c(-c2cccc(F)c2)[nH]c2cc(F)ccc12 (centres unmarked) [GAT1664] | – | – | – | – | 29 nM | 2.8 nM | did not produce | 38 ± 3.1 % stimulation above baseline | 110 nM | did not produce | no activity | did not recruit βarrestin2 | > 10000 nM | did not produce | 110 nM | 140 ± 7.0 % radioligand bound | – | – | –
O=[N+]([O-])C[C@@H](c1ccccc1F)c1c(-c2cccc(F)c2)[nH]c2cc(F)ccc12 [GAT1665] | – | – | – | – | 8.6 nM | 1.1 nM | did not produce | 41 ± 4.2 % stimulation above baseline | 21 nM | did not produce | – | recruited βarrestin2 as low-potency agonists and PAMs | > 10000 nM | did not produce | 140 nM | 190 ± 8.5 % radioligand bound | significant | significant | significant
O=[N+]([O-])CC(c1ccccc1F)c1c(-c2cccc(F)c2)[nH]c2c(F)cccc12 (centres unmarked) [GAT1666] | – | – | – | – | 270 nM | 1.3 nM | did not produce | 29 ± 2.6 % stimulation above baseline | 120 nM | did not produce | no activity | weak ability | > 10000 nM | did not produce | 140 nM | 140 ± 6.1 % radioligand bound | – | – | –
O=[N+]([O-])C[C@@H](c1ccccc1F)c1c(-c2cccc(F)c2)[nH]c2c(F)cccc12 [GAT1667] | – | – | – | – | 1.8 nM | 1.7 nM | did not produce | 34 ± 2.3 % stimulation above baseline | 8 nM | did not produce | – | recruited βarrestin2 as low-potency agonists and PAMs | > 10000 nM | did not produce | 28 nM | 230 ± 5.4 % radioligand bound | significant | significant | significant
